Key:
[1] = Metabolite profiles in plasma (UPLC, radioactivity detection, MS); type: in vivo, human; conditions: for Mean (range) Circulating Radioactivity in Plasma Based on AUC0-24: 100 mg oral [14C] encorafenib; for Mean (range) Circulating Radioactivity in Plasma Based on AUC0-24 (%): M12.8 value is sum of M12.8 and M13.2
Experimental: To the thawed plasma samples (1.5 mL plasma/ time points) two volumes of ice‐cold acetonitrile:ethanol:acetic acid (90:10:0.1, v/v) were added, followed by vortex mixing (10 min) and sonication (10 min). After centrifugation, the supernatants (4.2 mL) were evaporated to near dryness under a gentle stream of nitrogen on a TurboVap LV (Zymark Corp.). The residues were reconstituted in 80 μL of methanol:water:acetic acid (50:50:0.1, v/v) and 45 μL were injected into the ultra‐performance liquid chromatography (UPLC) system with off‐line radioactivity detection.
Characterization and quantification of the metabolites of encorafenib in select human plasma and excreta samples were performed by the Department of DMPK (Drug Metabolism and Pharmacokinetics) at the Novartis Institutes for Biomedical Research (East Hanover, NJ, USA) using liquid chromatography (LC) coupled to radioactivity detectors and mass spectrometers (MS).
The analytical system consisted of a Waters ACQUITY UPLC system (Waters), equipped with a Phenomenex Luna PFP column (3 μm, 4.6 × 150 mm) (Phenomenex) and a guard column of the same phase, both maintained at a temperature of 30°C. The mobile phases consisted of 10 mM ammonium acetate containing 0.1% formic acid (v/v) (solvent A) and CH3CN (solvent B). The total run time was 80 min. A linear gradient elution program was used with a flow rate of 1 mL/min as described in Table 1.
The UPLC effluent was split 4:1, with […] of the total flow introduced to the mass spectrometer for mass spectral analysis and the remaining flow used for radioactivity detection.
For off‐line radioactivity detection, the eluant was collected into 96‐well Lumaplate (Packard Instrument Co) microplates using a Collect Pal fraction collector (Leap Technologies) with a collection time of 10 seconds per well. The LumaPlates were sealed after drying and counted for 10–50 min per well on a Packard Topcount microplate scintillation counter. The structural characterization of metabolites was carried out using the above UPLC profiling method coupled to a two‐channel Z‐spray (LockSprayTM) time‐of‐flight mass spectrometer (Synapt MS). Leucine enkephalin was used as the mass reference standard for exact mass measurements and was delivered via the second spray channel at a flow rate of 5 μL/minute. The mass spectrometer was operated at a resolution of ~10 000 m/ΔmFWHM with spectra being collected from 100 to 1000 amu. The ionization technique employed was positive electrospray. The sprayer voltage was kept at 3100 V and the sampling cone voltage was kept at a potential of 20 V. For the time‐of‐flight MS/MS experiments, trap energies of 25 to 45 eV and transfer energy of 15 eV were used with argon as the collision gas.
All radioactivity data were transferred to Laura software (version 4.2.2.24, Lab Logic Ltd, UK) to generate and integrate radio‐chromatograms. Radioactive peaks for quantitative analysis were manually selected from the plots. The radioactivity in the region encompassing the beginning and end of the peak was summed. All further calculations were based on radioactivity.
The percent of radioactivity (%RA) in a particular peak, Z, was calculated as follows in Equation (1): (1) %RAinZ=DPMin PeakZ/totalDPMinallintegrated peaksx100
The concentration or amount of each component was calculated as % RA (expressed as a fraction) multiplied by the total concentration of radioactivity in plasma, or the percent of dose in the excreta.

[2] = system: A375 (BRAF V600E) melanoma cell proliferation; parameters: method as in data on file; conditions: fraction of encorafenib potency; ref data on file; cited from earlier work
[3] = parameters: method as in data on file; conditions: ref data on file; cited from earlier work

Mean (range) Circulating Radioactivity in Plasma Based on AUC0-24 [1]	Mean (range) Circulating Radioactivity in Plasma Based on AUC0-24 (%) [1]	Compound	Potency relative to encorafenib against A375 cell proliferation [2]	In vitro safety pharmacology result [3]
806 (525–1250) ngEq/mL*h	5.09 (4.02–6.36) %	CC(O)CNc1nccc(-c2cn(C(C)C)nc2-c2cc(Cl)cc(NS(C)(=O)=O)c2F)n1 (stereo not drawn) [M44]	–	–
2430 (1740–3320) ngEq/mL*h	15.5 (13.4–17.4) %	CC(C)n1cc(-c2ccnc(N)n2)c(-c2cc(Cl)cc(NS(C)(=O)=O)c2F)n1 [M42.5A]	approximately 1/30	no significant safety signal

Source: PMC10541456, “A phase I, single‐center, open‐label study to investigate the absorption, distribution, metabolism and excretion of encorafenib following a single oral dose of 100 mg [ ^14C] encorafenib in healthy male subjects” (Pharmacology Research & Perspectives, 2023)
